This passage reports IC50 results from patent US9580437B2, “Triazolopyrimidine compounds and uses thereof” (Novartis AG, priority 2014, dated 2017).

Assay [1] has as its target wild type PRC2 (wtPRC2) complex (Homo sapiens (Human), UniProt O75530). Nature of the assay: EED LC-MS assay. In kind it is biochemical. Particulars: read-out: (b) IC50 EED LC-MS Qualified. On the procedure:
A 6 μL solution of 3 μM of the peptide substrate H3K27Me0 (histone H3[21-44]-biotin) in reaction buffer was added to initiate each reaction. […] ELISA (H3K27 Methylation) Assay

In the next assay the target is EED (1-441)-His protein (Homo sapiens (Human), UniProt O75530). Nature of the assay: EED-H3K27Me3 peptide competition binding assay by AlphaScreen. Particulars: read-out: (a) IC50 EED Alphascreen binding Qualified. An excerpt: EED-H3K27Me3 peptide competition binding assay by AlphaScreen (α-screen)
(In Alpha technology, singlet oxygen from a donor bead excites a nearby acceptor bead.)

EED (1-441)-His protein, sequence (O75530 whole entry): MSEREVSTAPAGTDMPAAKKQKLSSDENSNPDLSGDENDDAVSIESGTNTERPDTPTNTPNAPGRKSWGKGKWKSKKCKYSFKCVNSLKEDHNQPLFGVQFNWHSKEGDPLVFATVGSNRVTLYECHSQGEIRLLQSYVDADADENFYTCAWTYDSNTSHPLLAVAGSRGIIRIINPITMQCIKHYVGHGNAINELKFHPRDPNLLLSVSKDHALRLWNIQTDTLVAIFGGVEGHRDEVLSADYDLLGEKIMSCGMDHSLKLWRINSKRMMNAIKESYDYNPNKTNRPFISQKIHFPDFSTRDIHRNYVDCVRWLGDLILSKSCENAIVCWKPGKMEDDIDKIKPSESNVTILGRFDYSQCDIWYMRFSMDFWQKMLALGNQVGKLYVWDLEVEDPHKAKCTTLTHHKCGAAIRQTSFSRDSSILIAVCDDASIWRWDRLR
wild type PRC2 (wtPRC2) complex, sequence (O75530 whole entry): as above
wild type PRC2 (wtPRC2) complex, sequence (Q15910 whole entry partner): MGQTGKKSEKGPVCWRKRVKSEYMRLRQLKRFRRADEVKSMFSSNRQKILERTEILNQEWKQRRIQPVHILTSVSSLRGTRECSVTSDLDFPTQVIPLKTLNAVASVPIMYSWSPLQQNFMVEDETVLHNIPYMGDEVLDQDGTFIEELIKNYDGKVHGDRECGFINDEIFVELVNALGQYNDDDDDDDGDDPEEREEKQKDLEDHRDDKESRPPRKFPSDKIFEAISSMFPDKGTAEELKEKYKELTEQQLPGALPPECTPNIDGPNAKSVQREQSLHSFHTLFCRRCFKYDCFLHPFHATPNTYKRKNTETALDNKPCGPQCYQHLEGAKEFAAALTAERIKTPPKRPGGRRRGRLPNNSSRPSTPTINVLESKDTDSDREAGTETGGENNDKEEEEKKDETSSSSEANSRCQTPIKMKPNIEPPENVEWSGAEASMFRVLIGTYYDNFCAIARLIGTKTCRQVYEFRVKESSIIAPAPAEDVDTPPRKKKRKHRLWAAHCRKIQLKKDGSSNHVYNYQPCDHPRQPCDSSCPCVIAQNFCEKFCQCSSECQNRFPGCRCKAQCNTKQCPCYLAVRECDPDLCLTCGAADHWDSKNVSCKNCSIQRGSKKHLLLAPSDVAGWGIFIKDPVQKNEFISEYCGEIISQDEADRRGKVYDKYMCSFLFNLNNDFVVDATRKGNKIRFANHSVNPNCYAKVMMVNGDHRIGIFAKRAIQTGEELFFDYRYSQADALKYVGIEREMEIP
wild type PRC2 (wtPRC2) complex, sequence (Q15022 whole entry partner): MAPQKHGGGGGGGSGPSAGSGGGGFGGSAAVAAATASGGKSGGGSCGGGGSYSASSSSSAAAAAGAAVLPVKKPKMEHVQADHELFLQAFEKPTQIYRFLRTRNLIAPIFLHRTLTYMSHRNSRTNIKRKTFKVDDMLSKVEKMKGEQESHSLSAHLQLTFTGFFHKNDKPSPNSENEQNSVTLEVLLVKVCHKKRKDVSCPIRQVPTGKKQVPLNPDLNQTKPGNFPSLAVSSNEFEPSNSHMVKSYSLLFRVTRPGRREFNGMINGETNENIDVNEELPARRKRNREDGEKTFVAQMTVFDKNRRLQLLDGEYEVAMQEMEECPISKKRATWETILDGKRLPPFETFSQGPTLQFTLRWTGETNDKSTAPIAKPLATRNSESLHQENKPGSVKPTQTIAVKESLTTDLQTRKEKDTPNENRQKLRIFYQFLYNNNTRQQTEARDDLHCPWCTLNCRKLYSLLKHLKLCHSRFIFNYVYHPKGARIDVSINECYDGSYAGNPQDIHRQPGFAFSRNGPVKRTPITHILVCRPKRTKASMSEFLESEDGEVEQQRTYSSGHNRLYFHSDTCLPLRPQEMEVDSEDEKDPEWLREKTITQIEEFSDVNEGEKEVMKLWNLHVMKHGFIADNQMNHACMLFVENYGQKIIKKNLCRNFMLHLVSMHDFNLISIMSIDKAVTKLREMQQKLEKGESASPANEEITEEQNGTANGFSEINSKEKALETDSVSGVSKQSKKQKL

As to `Fc1ccc2c(c1CNc1ncc(-n3cncn3)c3nncn13)CCO2` [Example 241, N-((5-fluoro-2,3-dihydrobenzofuran-4-yl)methyl)-8-(1H-1,2,4-triazol-1-yl)-[1,2,4]triazolo[4,3-c]pyrimidin-5-amine], the IC50 (in general, the concentration that gives 50% inhibition) was determined as 30 nM in assay [1] and 11.3 nM at EED (1-441)-His protein.
The matching figures for `Cc1c(-c2cnc(NCc3c(F)ccc4c3CCO4)n3cnnc23)cnn1C` [Example 172, 8-(1,5-dimethyl-1H-pyrazol-4-yl)-N-((5-fluoro-2,3-dihydrobenzofuran-4-yl)methyl)-[1,2,4]triazolo[4,3-c]pyrimidin-5-amine]: 7.1 nM and 6.6 nM.
For `COc1ncc(-c2cnc(NCc3c(F)ccc4c3CCO4)n3cnnc23)c(C)n1` [Example 175, N-((5-fluoro-2,3-dihydrobenzofuran-4-yl)methyl)-8-(2-methoxy-4-methylpyrimidin-5-yl)-[1,2,4]triazolo[4,3-c]pyrimidin-5-amine] the same measures were 9.2 nM and 6.3 nM.
For `CC1CCCN1c1ccc(-c2cnc(NCc3cccc4c3CCO4)n3cnnc23)cn1` (stereo not drawn) [Example 96, N-((2,3-dihydrobenzofuran-4-yl)methyl)-8-(6-(2-methylpyrrolidin-1-yl)pyridin-3-yl)-[1,2,4]triazolo[4,3-c]pyrimidin-5-amine] the same measures were 13.2 nM and 26 nM.
As for `CC(c1ccc(-c2cnc(NCc3c(F)ccc4c3CCO4)n3cnnc23)cc1)N1CCCC1` (stereo not drawn) [Example 46, N-((5-fluoro-2,3-dihydrobenzofuran-4-yl)methyl)-8-(4-(1-(pyrrolidin-1-yl)ethyl)phenyl)-[1,2,4]triazolo[4,3-c]pyrimidin-5-amine], the IC50 in assay [1] turned out to be 64 nM; at EED (1-441)-His protein, 43.5 nM.
The matching figures for `Cc1ncccc1-c1c(C)nc(NCc2c(F)ccc3c2CCO3)n2cnnc12` [Example 203, N-((5-fluoro-2,3-dihydrobenzofuran-4-yl)methyl)-7-methyl-8-(2-methylpyridin-3-yl)-[1,2,4]triazolo[4,3-c]pyrimidin-5-amine]: 338 nM and 42.4 nM.
For `COc1cc(F)c(-c2cnc(NCc3c(F)ccc4c3CCO4)n3cnnc23)cn1` [Example 161, N-((5-fluoro-2,3-dihydrobenzofuran-4-yl)methyl)-8-(4-fluoro-6-methoxypyridin-3-yl)-[1,2,4]triazolo[4,3-c]pyrimidin-5-amine] the same measures were 9.8 nM and 3.6 nM.
For `Cc1ccc(-c2cnc(NCc3c(F)ccc4c3CCO4)n3cnnc23)c(C(F)F)n1` [Example 201, 8-(2-(difluoromethyl)-6-methylpyridin-3-yl)-N-((5-fluoro-2,3-dihydrobenzofuran-4-yl)methyl)-[1,2,4]triazolo[4,3-c]pyrimidin-5-amine] the same measures were 7.3 nM and 5.9 nM.
With `CN(C)Cc1ccc(-c2cnc(NCc3c(F)ccc4c3CCO4)n3cnnc23)cc1` [Example 23, 8-(4-((dimethylamino)methyl)phenyl)-N-((5-fluoro-2,3-dihydrobenzofuran-4-yl)methyl)-[1,2,4]triazolo[4,3-c]pyrimidin-5-amine], the IC50 amounted to 25.7 nM in assay [1] and 31.1 nM on EED (1-441)-His protein.
The matching figures for `Cc1cc(C#N)ccc1-c1cnc(NCc2c(F)ccc3c2CCO3)n2cnnc12` [Example 178, 4-(5-(((5-fluoro-2,3-dihydrobenzofuran-4-yl)methyl)amino)-[1,2,4]triazolo[4,3-c]pyrimidin-8-yl)-3-methylbenzonitrile]: 7 nM and 5.4 nM.
For `Fc1ccc2c(c1CNc1ncc(-n3cccn3)c3nncn13)CCO2` [Example 237, N-((5-fluoro-2,3-dihydrobenzofuran-4-yl)methyl)-8-(1H-pyrazol-1-yl)-[1,2,4]triazolo[4,3-c]pyrimidin-5-amine] the same measures were 10 nM and 3.1 nM.
The matching figures for `Cc1ncc(-c2cnc(NCc3c(F)ccc4c3CCO4)n3cnnc23)n1C` [Example 245, 8-(1,2-dimethyl-1H-imidazol-5-yl)-N-((5-fluoro-2,3-dihydrobenzofuran-4-yl)methyl)-[1,2,4]triazolo[4,3-c]pyrimidin-5-amine]: 223 nM and 67.2 nM.
In the case of `CN1CCN(c2ccc(-c3cnc(NCc4cccc5occc45)n4cnnc34)cc2)CC1` [Example 209, N-(benzofuran-4-ylmethyl)-8-(4-(4-methylpiperazin-1-yl)phenyl)-[1,2,4]triazolo[4,3-c]pyrimidin-5-amine], the IC50 in assay [1] was 29 nM; at EED (1-441)-His protein, 36.9 nM.
With `CN(C)C(=O)CCc1ccc(-c2cnc(NCc3cccc4c3CCO4)n3cnnc23)cn1` [Example 135, 3-(5-(5-(((2,3-dihydrobenzofuran-4-yl)methyl)amino)-[1,2,4]triazolo[4,3-c]pyrimidin-8-yl)pyridin-2-yl)-N,N-dimethylpropanamide], the values for the IC50 (in assay [1]; on EED (1-441)-His protein) were 11.2 nM and 5.7 nM, respectively.
For `O=C1CN(CCc2ccc(-c3cnc(NCc4cccc5c4CCO5)n4cnnc34)cn2)CCN1` [Example 109, 4-(2-(5-(5-(((2,3-dihydrobenzofuran-4-yl)methyl)amino)-[1,2,4]triazolo[4,3-c]pyrimidin-8-yl)pyridin-2-yl)ethyl)piperazin-2-one] the same measures were 13.7 nM and 8.8 nM.
As for `c1cc(CNc2ncc(-c3cnn(C4CC4)c3)c3nncn23)c2c(c1)OCC2` [Example 149, 8-(1-cyclopropyl-1H-pyrazol-4-yl)-N-((2,3-dihydrobenzofuran-4-yl)methyl)-[1,2,4]triazolo[4,3-c]pyrimidin-5-amine], the IC50 in assay [1] turned out to be 33.7 nM; at EED (1-441)-His protein it was 16.9 nM.
The matching figures for `[O-][n+]1cccc(-c2cnc(NCc3c(F)ccc4c3CCO4)n3cnnc23)c1` [Example 10, 3-(5-(((5-fluoro-2,3-dihydrobenzofuran-4-yl)methyl)amino)-[1,2,4]triazolo[4,3-c]pyrimidin-8-yl)pyridine 1-oxide]: 13.8 nM and 7.3 nM.
For `Cc1cnc(F)cc1-c1cnc(NCc2c(F)ccc3c2CCO3)n2cnnc12` [Example 183, N-((5-fluoro-2,3-dihydrobenzofuran-4-yl)methyl)-8-(2-fluoro-5-methylpyridin-4-yl)-[1,2,4]triazolo[4,3-c]pyrimidin-5-amine] the same measures were 8.1 nM and 4.8 nM.
Consider `Cc1nn(C)cc1-c1cnc(NCc2cccc3c2CCO3)n2cnnc12` [Example 30, N-((2,3-dihydrobenzofuran-4-yl)methyl)-8-(1,3-dimethyl-1H-pyrazol-4-yl)-[1,2,4]triazolo[4,3-c]pyrimidin-5-amine], for which the half-maximal inhibitory concentration (IC50) stood at 24.8 nM in assay [1] and 5.3 nM on EED (1-441)-His protein.
`OCCN1CCN(c2ccc(-c3cnc(NCc4cccc5c4CCO5)n4cnnc34)cn2)CC1` [Example 110, 2-(4-(5-(5-(((2,3-dihydrobenzofuran-4-yl)methyl)amino)-[1,2,4]triazolo[4,3-c]pyrimidin-8-yl)pyridin-2-yl)piperazin-1-yl)ethanol]: the concentration for half-maximal inhibition (IC50) in assay [1] was 15.2 nM; on EED (1-441)-His protein, 9.3 nM.
The matching figures for `Cc1ncn(-c2cnc(NCc3c(F)ccc4c3CCO4)n3cnnc23)n1` [Example 238, N-((5-fluoro-2,3-dihydrobenzofuran-4-yl)methyl)-8-(3-methyl-1H-1,2,4-triazol-1-yl)-[1,2,4]triazolo[4,3-c]pyrimidin-5-amine]: 14.4 nM and 4.7 nM.
